Test results as given in patent publication US8757784B2, “Ink for ink jet recording and recording method” (Seiko Epson Corporation, priority 2012, dated 2014).

Assay: logP value (octanol/water distribution)
Source text: Herein, the “logP value” is an index that represents hydrophobicity of a compound. The logP value represents, in an octanol/water system, in which ratio a solute is distributed in these two layers. In other words, when the logP value of the solute is bigger, the hydrophobicity is higher and the solute is well dissolved in an octanol phase.
For example, the logP value can be determined using a flask shaking method using the solute and two types of solvents being actually placed in a flask and mixed by shaking the flask well, or a HPLC method using a high performance liquid chromatography (HPLC).

[1] = octanol/water, logP value, octanol/water system

| SMILES | logP [1] | other results |
| --- | --- | --- |
| CCC(O)CO (stereo not shown) [1,2-butanediol] | -0.32 |  |
| CCCCC(O)CO (stereo not shown) [1,2-hexanediol] | 0.5 |  |
| CCCC(O)CO (stereo not shown) [1,2-pentanediol] | 0.01 |  |
| CCC(O)CCO (stereo not shown) [1,3-pentanediol] | -0.16 |  |
| OCCCO [1,3-propanediol] |  | logP value (octanol/water system): −1.33 |
| OCCCCO [1,4-butanediol] |  | logP: 0.5; logP value: 0.50 |
| CCCC(=O)OCC(O)CO (stereo not shown) [1-butanoyl glycerol] | 0 |  |
| CC(C)C(O)C(C)(C)CO (stereo not shown) [2,2,4-trimethyl-1,3-pentanediol] |  | logP: 2 |
| CC(C)(CO)CO [2,2-dimethyl-1,3-propanediol] | -0.3 |  |
| CC(O)C(C)O (stereo not shown) [2,3-butanediol] |  | logP: -0.36 |
| CC(C)(O)CCC(C)(C)O [2,5-dimethyl-2,5-hexanediol] | 1.53 |  |
| CC(O)CCC(C)O (stereo not shown) [2,5-hexanediol] | 0.62 |  |
| CCCCC(CC)(CO)CO [2-butyl-2-ethyl-1,3-propanediol] | 2.1 |  |
| CC(C)(O)CO [2-methyl-1,2-propanediol] | 0.026 |  |
| CC(CO)CO [2-methyl-1,3-propanediol] | -0.6 |  |
| CC(O)CC(C)(C)O (stereo not shown) [2-methyl-2,4-pentanediol] | 0.88 |  |
| CC(C)(O)CCO [3-methyl-1,3-butanediol] | -0.33 |  |
| CC(CCO)CCO [3-methyl-1,5-pentanediol] | -0.2 |  |
| OCC(O)CO [glycerin] |  | logP value (octanol/water system): −2.70 |
| CC(O)CO (stereo not shown) [propylene glycol] | -0.92 |  |
| CCC(CO)(CO)CO [trimethylol propane] |  | logP value (octanol/water system): −0.47 |
